Each structure is given as a SMILES string. Bounds are passed on as bounds.

The assay concerns HCT116 cells. In words: In vitro cytotoxicity measured by the cell colony formation assay. Type of assay: cell-based. The conditions noted are these: HCT116 colony formation; 72 h drug incubation, colonies counted after 7 days; Example 10, C-10 ester/C-7 hydroxy taxanes; read-out: IN VITRO ID 50 (nm) HCT116. How it is done:
(§1) Four hundred cells (HCT116) were plated in 60 mm Petri dishes containing 2.7 mL of medium (modified McCoy's 5a medium containing 10% fetal bovine serum and 100 units/mL penicillin and 100 µg/mL streptomycin). The cells were incubated in a CO2 incubator at 37° C. for 5 h for attachment to the bottom of Petri dishes. The compounds identified in Example 2 were made up fresh in medium at ten times the final concentration, and then 0.3 mL of this stock solution was added to the 2.7 mL of medium in the dish. The cells were then incubated with drugs for 72 h at 37° C. At the end of incubation the drug-containing media were decanted, the dishes were rinsed with 4 mL of Hank's Balance Salt Solution (HBSS), 5 mL of fresh medium was added, and the dishes were returned to the incubator for colony formation. The cell colonies were counted using a colony counter after incubation for 7 days.
as §1, with “Example 7” for “Example 2”
as §1, with “Example 22” for “Example 2”
as §1, with “Example 27” for “Example 2”
Four hundred cells (HCT116) were plated in 60 mm Petri dishes containing 2.7 mL of medium (modified McCoy's 5a medium containing 10% fetal bovine serum and 100 units/mL penicillin and 100 µg/mL streptomycin). The cells were incubated in a CO2 incubator at 37° C. for 5 h for attachment to the bottom of Petri dishes. […]
As to `CCC(=O)O[C@H]1C(=O)[C@@]2(C)C([C@H](OC(=O)c3ccccc3)[C@]3(O)C[C@H](OC(=O)[C@H](O)[C@H](C=C(C)C)NC(=O)OC(C)(C)C)C(C)=C1C3(C)C)[C@]1(OC(C)=O)CO[C@@H]1C[C@@H]2O` (stereo partly shown) [Compound 0499], the IC50 is less than 1 nM.

For the molecule `CCC(=O)O[C@H]1C(=O)[C@@]2(C)C([C@H](OC(=O)c3ccccc3)[C@]3(O)C[C@H](OC(=O)[C@H](O)[C@@H](NC(=O)OC(C)(C)C)c4ccccn4)C(C)=C1C3(C)C)[C@]1(OC(C)=O)CO[C@@H]1C[C@@H]2O` (stereo partly shown) [Compound 0503], the IC50 was less than 1 nM.

With `CCC(=O)O[C@H]1C(=O)[C@@]2(C)C([C@H](OC(=O)c3ccccc3)[C@]3(O)C[C@H](OC(=O)[C@H](O)[C@@H](NC(=O)OC(C)(C)C)c4cccnc4)C(C)=C1C3(C)C)[C@]1(OC(C)=O)CO[C@@H]1C[C@@H]2O` (stereo partly shown) [Compound 0517], the IC50 was less than 10 nM.

Take `CCC(=O)O[C@H]1C(=O)[C@@]2(C)C([C@H](OC(=O)c3ccccc3)[C@]3(O)C[C@H](OC(=O)[C@H](O)[C@@H](NC(=O)OC(C)(C)C)c4ccncc4)C(C)=C1C3(C)C)[C@]1(OC(C)=O)CO[C@@H]1C[C@@H]2O` (stereo partly shown) [Compound 0521]: the IC50 was less than 1 nM.

For the molecule `CCC(=O)O[C@H]1C(=O)[C@@]2(C)C([C@H](OC(=O)c3ccccc3)[C@]3(O)C[C@H](OC(=O)[C@H](O)[C@@H](NC(=O)OC(C)(C)C)c4ccco4)C(C)=C1C3(C)C)[C@]1(OC(C)=O)CO[C@@H]1C[C@@H]2O` (stereo partly shown) [Compound 0536], the IC50 was less than 1 nM.

In the case of `CCC(=O)O[C@H]1C(=O)[C@@]2(C)C([C@H](OC(=O)c3ccccc3)[C@]3(O)C[C@H](OC(=O)[C@H](O)[C@@H](NC(=O)OC(C)(C)C)c4ccoc4)C(C)=C1C3(C)C)[C@]1(OC(C)=O)CO[C@@H]1C[C@@H]2O` (stereo partly shown) [Compound 0549], the IC50 was less than 10 nM.

Turning to `CCC(=O)O[C@H]1C(=O)[C@@]2(C)C([C@H](OC(=O)c3ccccc3)[C@]3(O)C[C@H](OC(=O)[C@H](O)[C@@H](NC(=O)OC(C)(C)C)c4cccs4)C(C)=C1C3(C)C)[C@]1(OC(C)=O)CO[C@@H]1C[C@@H]2O` (stereo partly shown) [Compound 0550], the IC50 was less than 10 nM.

Regarding `CCC(=O)O[C@H]1C(=O)[C@@]2(C)C([C@H](OC(=O)c3ccccc3)[C@]3(O)C[C@H](OC(=O)[C@H](O)[C@@H](NC(=O)OC(C)(C)C)c4ccsc4)C(C)=C1C3(C)C)[C@]1(OC(C)=O)CO[C@@H]1C[C@@H]2O` (stereo partly shown) [Compound 0562], the IC50 was less than 1 nM.

For the molecule `CCC(=O)O[C@H]1C(=O)[C@@]2(C)C([C@H](OC(=O)c3ccccc3)[C@]3(O)C[C@H](OC(=O)[C@H](O)[C@@H](NC(=O)OC(C)(C)C)C4CC4)C(C)=C1C3(C)C)[C@]1(OC(C)=O)CO[C@@H]1C[C@@H]2O` (stereo partly shown) [Compound 0578], the IC50 is less than 1 nM.

Turning to `CCC(=O)O[C@H]1C(=O)[C@@]2(C)C([C@H](OC(=O)c3ccccc3)[C@]3(O)C[C@H](OC(=O)[C@H](O)[C@@H](NC(=O)OC(C)(C)C)C(C)C)C(C)=C1C3(C)C)[C@]1(OC(C)=O)CO[C@@H]1C[C@@H]2O` (stereo partly shown) [Compound 0583], the IC50 was less than 10 nM.

As for `CCC(=O)O[C@H]1C(=O)[C@@]2(C)C([C@H](OC(=O)c3ccccc3)[C@]3(O)C[C@H](OC(=O)[C@H](O)[C@@H](NC(=O)OC(C)(C)C)C4CCC4)C(C)=C1C3(C)C)[C@]1(OC(C)=O)CO[C@@H]1C[C@@H]2O` (stereo partly shown) [Compound 0596], the IC50 is less than 10 nM.

Turning to `CCC(=O)O[C@H]1C(=O)[C@@]2(C)C([C@H](OC(=O)c3ccccc3)[C@]3(O)C[C@H](OC(=O)[C@H](O)[C@@H](NC(=O)OC(C)(C)C)c4ccc([N+](=O)[O-])cc4)C(C)=C1C3(C)C)[C@]1(OC(C)=O)CO[C@@H]1C[C@@H]2O` (stereo partly shown) [Compound 0602], the IC50 is less than 1 nM.

As for `CCC(=O)O[C@H]1C(=O)[C@@]2(C)C([C@H](OC(=O)c3ccccc3)[C@]3(O)C[C@H](OC(=O)[C@H](O)[C@@H](NC(=O)OC(C)(C)C)c4ccccc4)C(C)=C1C3(C)C)[C@]1(OC(C)=O)CO[C@@H]1C[C@@H]2O` (stereo partly shown) [Compound 0611], the IC50 was less than 10 nM.

In the case of `CCC(=O)O[C@H]1C(=O)[C@@]2(C)C([C@H](OC(=O)c3ccccc3)[C@]3(O)C[C@H](OC(=O)[C@H](O)[C@H](C=C(C)C)NC(=O)c4ccccc4)C(C)=C1C3(C)C)[C@]1(OC(C)=O)CO[C@@H]1C[C@@H]2O` (stereo partly shown) [Compound 0625], the IC50 was less than 1 nM.

On to `CCC(=O)O[C@H]1C(=O)[C@@]2(C)C([C@H](OC(=O)c3ccccc3)[C@]3(O)C[C@H](OC(=O)[C@H](O)[C@@H](NC(=O)c4ccccc4)c4ccccn4)C(C)=C1C3(C)C)[C@]1(OC(C)=O)CO[C@@H]1C[C@@H]2O` (stereo partly shown) [Compound 0634], for which the IC50 was less than 10 nM.

`CCC(=O)O[C@H]1C(=O)[C@@]2(C)C([C@H](OC(=O)c3ccccc3)[C@]3(O)C[C@H](OC(=O)[C@H](O)[C@@H](NC(=O)c4ccccc4)c4cccnc4)C(C)=C1C3(C)C)[C@]1(OC(C)=O)CO[C@@H]1C[C@@H]2O` (stereo partly shown) [Compound 0647]: the IC50 is 12 nM.

For the molecule `CCC(=O)O[C@H]1C(=O)[C@@]2(C)C([C@H](OC(=O)c3ccccc3)[C@]3(O)C[C@H](OC(=O)[C@H](O)[C@@H](NC(=O)c4ccccc4)c4ccncc4)C(C)=C1C3(C)C)[C@]1(OC(C)=O)CO[C@@H]1C[C@@H]2O` (stereo partly shown) [Compound 0659], the IC50 is less than 1 nM.

Regarding `CCC(=O)O[C@H]1C(=O)[C@@]2(C)C([C@H](OC(=O)c3ccccc3)[C@]3(O)C[C@H](OC(=O)[C@H](O)[C@@H](NC(=O)c4ccccc4)c4ccco4)C(C)=C1C3(C)C)[C@]1(OC(C)=O)CO[C@@H]1C[C@@H]2O` (stereo partly shown) [Compound 0663], the IC50 was less than 1 nM.

As to `CCC(=O)O[C@H]1C(=O)[C@@]2(C)C([C@H](OC(=O)c3ccccc3)[C@]3(O)C[C@H](OC(=O)[C@H](O)[C@@H](NC(=O)c4ccccc4)c4ccoc4)C(C)=C1C3(C)C)[C@]1(OC(C)=O)CO[C@@H]1C[C@@H]2O` (stereo partly shown) [Compound 0670], the IC50 is less than 1 nM.

In the case of `CCC(=O)O[C@H]1C(=O)[C@@]2(C)C([C@H](OC(=O)c3ccccc3)[C@]3(O)C[C@H](OC(=O)[C@H](O)[C@@H](NC(=O)c4ccccc4)c4ccsc4)C(C)=C1C3(C)C)[C@]1(OC(C)=O)CO[C@@H]1C[C@@H]2O` (stereo partly shown) [Compound 0691], the IC50 was less than 1 nM.

`CCC(=O)O[C@H]1C(=O)[C@@]2(C)C([C@H](OC(=O)c3ccccc3)[C@]3(O)C[C@H](OC(=O)[C@H](O)[C@@H](NC(=O)c4ccccc4)C4CC4)C(C)=C1C3(C)C)[C@]1(OC(C)=O)CO[C@@H]1C[C@@H]2O` (stereo partly shown) [Compound 0706]: the IC50 was less than 1 nM.

Regarding `CCC(=O)O[C@H]1C(=O)[C@@]2(C)C([C@H](OC(=O)c3ccccc3)[C@]3(O)C[C@H](OC(=O)[C@H](O)[C@@H](NC(=O)c4ccccc4)C(C)C)C(C)=C1C3(C)C)[C@]1(OC(C)=O)CO[C@@H]1C[C@@H]2O` (stereo partly shown) [Compound 0719], the IC50 is less than 10 nM.

Turning to `CCC(=O)O[C@H]1C(=O)[C@@]2(C)C([C@H](OC(=O)c3ccccc3)[C@]3(O)C[C@H](OC(=O)[C@H](O)[C@@H](NC(=O)c4ccccc4)C4CCC4)C(C)=C1C3(C)C)[C@]1(OC(C)=O)CO[C@@H]1C[C@@H]2O` (stereo partly shown) [Compound 0720], the IC50 was less than 10 nM.

Consider `CCC(=O)O[C@H]1C(=O)[C@@]2(C)C([C@H](OC(=O)c3ccccc3)[C@]3(O)C[C@H](OC(=O)[C@H](O)[C@@H](NC(=O)c4ccccc4)c4ccc([N+](=O)[O-])cc4)C(C)=C1C3(C)C)[C@]1(OC(C)=O)CO[C@@H]1C[C@@H]2O` (stereo partly shown) [Compound 0732], for which the IC50 is less than 10 nM.

Consider `CCC(=O)O[C@H]1C(=O)[C@@]2(C)C([C@H](OC(=O)c3ccccc3)[C@]3(O)C[C@H](OC(=O)[C@H](O)[C@@H](NC(=O)c4ccccc4)c4ccccc4)C(C)=C1C3(C)C)[C@]1(OC(C)=O)CO[C@@H]1C[C@@H]2O` (stereo partly shown) [Compound 0748], for which the IC50 is less than 10 nM.

The record behind these values is patent US6638973B2, “Taxane formulations” (FSU Research Foundation, Inc., priority 2000, dated 2003).
